According to US20230055237A1, “COMPOUNDS AND METHODS FOR THE TREATMENT OF CYSTIC FIBROSIS” (Flatley Discovery Lab, LLC, priority 2019, published 2023):

Molecular target: T1, CFTR (Homo sapiens, UniProt P13569, DEL508-508)
T1 construct: Primary CF airway epithelial cells were obtained from the UNC Cystic Fibrosis Tissue Procurement and Cell Culture Core; host or cells: primary CF airway epithelial cells, differentiated at the air-liquid interface
Assay: Equivalent current assay in primary CF airway epithelial cells (NAUC, combination with 1st site corrector FDL169 or VX-809)
Type: cell-based
Details: 37° C., 24 h

[1] = test compound 1 μM in combination with 1st site corrector FDL169 (3 μM)
[2] = test compound 3 μM in combination with 1st site corrector FDL169 (3 μM)
[3] = test compound 10 μM in combination with 1st site corrector FDL169 (3 μM)
[4] = test compound 3 μM in combination with 1st site corrector VX-809 (3 μM)
[5] = test compound 10 μM in combination with 1st site corrector VX-809 (3 μM)
[6] = test compound 1 μM in combination with 1st site corrector VX-809 (3 μM)

T1 sequence (P13569 with tags, fused parts or gaps DEL508-508): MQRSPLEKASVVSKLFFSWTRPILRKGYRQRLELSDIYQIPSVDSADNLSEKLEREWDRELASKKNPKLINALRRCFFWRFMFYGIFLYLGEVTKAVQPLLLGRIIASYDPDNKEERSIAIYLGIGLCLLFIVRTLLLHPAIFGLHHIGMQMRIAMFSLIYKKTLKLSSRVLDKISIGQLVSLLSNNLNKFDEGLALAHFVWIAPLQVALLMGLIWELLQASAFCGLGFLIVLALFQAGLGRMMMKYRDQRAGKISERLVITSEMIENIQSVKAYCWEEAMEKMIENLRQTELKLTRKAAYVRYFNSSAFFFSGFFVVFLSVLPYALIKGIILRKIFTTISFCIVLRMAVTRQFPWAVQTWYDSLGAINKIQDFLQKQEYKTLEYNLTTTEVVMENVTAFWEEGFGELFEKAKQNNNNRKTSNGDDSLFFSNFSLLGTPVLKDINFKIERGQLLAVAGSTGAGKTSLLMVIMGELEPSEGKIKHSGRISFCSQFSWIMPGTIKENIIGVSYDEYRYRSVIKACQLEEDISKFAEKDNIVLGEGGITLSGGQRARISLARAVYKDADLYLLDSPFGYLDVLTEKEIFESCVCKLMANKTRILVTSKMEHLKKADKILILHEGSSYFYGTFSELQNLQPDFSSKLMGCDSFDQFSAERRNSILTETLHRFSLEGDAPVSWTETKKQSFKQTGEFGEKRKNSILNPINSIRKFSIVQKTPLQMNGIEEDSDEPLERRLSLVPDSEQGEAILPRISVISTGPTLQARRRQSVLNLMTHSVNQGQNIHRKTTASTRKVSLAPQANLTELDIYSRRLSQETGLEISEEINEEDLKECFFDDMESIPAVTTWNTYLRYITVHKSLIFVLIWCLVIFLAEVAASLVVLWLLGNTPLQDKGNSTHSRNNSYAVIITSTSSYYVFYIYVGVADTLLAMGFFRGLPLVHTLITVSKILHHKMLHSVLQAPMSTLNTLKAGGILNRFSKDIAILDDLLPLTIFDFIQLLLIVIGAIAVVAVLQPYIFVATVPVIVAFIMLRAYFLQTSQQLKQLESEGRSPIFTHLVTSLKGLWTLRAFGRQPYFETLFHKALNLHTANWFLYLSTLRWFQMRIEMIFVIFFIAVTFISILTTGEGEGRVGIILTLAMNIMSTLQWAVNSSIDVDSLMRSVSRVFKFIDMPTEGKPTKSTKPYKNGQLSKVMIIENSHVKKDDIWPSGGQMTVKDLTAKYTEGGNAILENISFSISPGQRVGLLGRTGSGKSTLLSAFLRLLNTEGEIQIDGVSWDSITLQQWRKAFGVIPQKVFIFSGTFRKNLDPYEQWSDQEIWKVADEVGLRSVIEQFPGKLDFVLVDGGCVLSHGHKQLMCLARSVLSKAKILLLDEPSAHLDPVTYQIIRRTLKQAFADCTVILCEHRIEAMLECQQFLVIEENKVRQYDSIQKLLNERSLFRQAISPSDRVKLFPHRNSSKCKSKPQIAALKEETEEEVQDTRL

SMILES	Nauc @ 1 μM [1]	Nauc @ 3 μM [2]	Nauc @ 10 μM [3]	Nauc @ 3 μM [4]	Nauc @ 10 μM [5]	Nauc @ 1 μM [6]
O=C(O)[C@H]1[C@@H](C(=O)N(CC2CC2)c2cccc(CC(F)(F)F)c2)[C@H]2CC(F)(F)CN2[C@]12C(=O)Nc1c(Cl)cc(Cl)cc12 [Example 164]	+++ (NAUC “+++” refers to an observed NAUC>170% of positive control)	+++ (NAUC “+++” refers to an observed NAUC>170% of positive control)	+++ (NAUC “+++” refers to an observed NAUC>170% of positive control)	–	–	–
CC(C)(C)c1cccc(CCNC(=O)C2C3CCCN3C3(C(=O)Nc4c(Cl)cc(Cl)cc43)C2C(=O)O)c1 (stereo not shown) [Example 53]	–	–	–	+++ (NAUC “+++” refers to an observed NAUC>170% of positive control)	+++ (NAUC “+++” refers to an observed NAUC>170% of positive control)	–
O=C(Nc1cc(Cl)cc(Cl)c1)C1C2CC(F)(F)CN2C2(C(=O)Nc3c(Cl)cc(Cl)cc32)C1C(=O)NO (single isomer, unassigned) [Example 226a, 5,7-dichloro-N1′-(3,5-dichlorophenyl)-6′,6′-difluoro-N2′-hydroxy-2-oxo-1′,2′,5′,6′,7′,7a′-hexahydrospiro[indoline-3,3′-pyrrolizine]-1′,2′-dicarboxamide]	–	–	–	++ (NAUC “++” refers to an observed NAUC 170-140% of positive control)	+++ (NAUC “+++” refers to an observed NAUC>170% of positive control)	++ (NAUC “++” refers to an observed NAUC 170-140% of positive control)
O=C(O)[C@H]1[C@@H](C(=O)N(c2cc(Cl)cc(Cl)c2)C2CCCC2)[C@H]2CC(F)(F)CN2[C@]12C(=O)Nc1c(Cl)cc(Cl)cc12 [Example 175]	+++ (NAUC “+++” refers to an observed NAUC>170% of positive control)	+++ (NAUC “+++” refers to an observed NAUC>170% of positive control)	+++ (NAUC “+++” refers to an observed NAUC>170% of positive control)	–	–	–
O=C(Nc1cncc(C(F)(F)F)n1)C1C2C[C@@](O)(C(F)(F)F)CN2C2(C(=O)Nc3c(Cl)cc(Cl)cc32)C1C(=O)O (stereo partly shown) [Example 17]	–	–	–	+++ (NAUC “+++” refers to an observed NAUC>170% of positive control)	+++ (NAUC “+++” refers to an observed NAUC>170% of positive control)	–
O=C(Nc1ccc2nccnc2c1)[C@H]1[C@H]2CC(F)(F)CN2[C@]2(C(=O)Nc3c(Cl)cc(Cl)cc32)[C@H]1C(=O)O [Example 147]	+ (NAUC “+” refers to an observed NAUC <140% of positive control)	+ (NAUC “+” refers to an observed NAUC <140% of positive control)	–	–	–	–
O=C(Nc1cc(Cl)cc(Cl)c1)C1C(Cc2ccccc2)NC2(C(=O)Nc3c(Cl)cc(Cl)cc32)C1C(=O)O (stereo not shown) [Example 34]	–	–	–	+++ (NAUC “+++” refers to an observed NAUC>170% of positive control)	++ (NAUC “++” refers to an observed NAUC 170-140% of positive control)	–
O=C(Nc1cc(Cl)c(OC(F)F)c(Cl)c1)C1C2CCCN2C2(C(=O)Nc3c(Cl)cc(Cl)cc32)C1C(=O)O (stereo not shown) [Example 19]	–	–	–	++ (NAUC “++” refers to an observed NAUC 170-140% of positive control)	+++ (NAUC “+++” refers to an observed NAUC>170% of positive control)	–
C[C@]1(O)C[C@@H]2[C@H](C(=O)Nc3cc(Cl)cc(Cl)c3)[C@H](C(=O)NO)[C@@]3(C(=O)Nc4c(Cl)cc(Cl)cc43)N2C1 [Example 245, (1′R,2′S,6′S,7a′R)-5,7-dichloro-N1′-(3,5-dichlorophenyl)-N2′,6′-dihydroxy-6′-methyl-2-oxo-1′,2′,5′,6′,7′,7a′-hexahydrospiro[indoline-3,3′-pyrrolizine]-1′,2′-dicarboxamide]	–	–	–	++ (NAUC “++” refers to an observed NAUC 170-140% of positive control)	+++ (NAUC “+++” refers to an observed NAUC>170% of positive control)	+ (NAUC “+” refers to an observed NAUC <140% of positive control)
CC(C)(C)CN(C(=O)[C@H]1[C@H]2CC(C)(C)CN2C2(C(=O)Nc3c(Cl)cc(Cl)cc32)[C@H]1C(=O)O)c1cc(Cl)cc(Cl)c1 (single isomer, unassigned) [Example 274.6a, (1′R,2′S,7a′R)-5,7-dichloro-1-((3,5-dichlorophenyl)(neopentyl)carbamoyl)-6′,6′-dimethyl-2-oxo1′,2′,5′,6′,7′,7a′-hexahydrospiro[indoline-3,3′-pyrrolizine]-2′-carboxylic acid]	++ (NAUC “++” refers to an observed NAUC 170-140% of positive control)	+ (NAUC “+” refers to an observed NAUC <140% of positive control)	+ (NAUC “+” refers to an observed NAUC <140% of positive control)	–	–	–
CC(C)(C)CCN(C(=O)[C@H]1[C@H]2CC(F)(F)CN2[C@]2(C(=O)Nc3c(Cl)cc(Cl)cc32)[C@H]1C(=O)O)c1cc(Cl)cc(Cl)c1 [Example 182]	+++ (NAUC “+++” refers to an observed NAUC>170% of positive control)	++ (NAUC “++” refers to an observed NAUC 170-140% of positive control)	–	–	–	–
Cn1ncc2cc(NC(=O)[C@H]3[C@H]4CC(F)(F)CN4[C@]4(C(=O)Nc5c(Cl)cc(Cl)cc54)[C@H]3C(=O)O)ccc21 [Example 138]	+ (NAUC “+” refers to an observed NAUC <140% of positive control)	+ (NAUC “+” refers to an observed NAUC <140% of positive control)	–	–	–	–
CN(O)C(=O)C1C(C(=O)N(C)c2cc(Cl)cc(Cl)c2)C2CC(F)(F)CN2C12C(=O)Nc1c(Cl)cc(Cl)cc12 (single isomer, unassigned) [Example 229b, 5,7-dichloro-N1′-(3,5-dichlorophenyl)-6′,6′-difluoro-N2′-hydroxy-N1′,N2′-dimethyl-2-oxo-1′,2′,5′,6′,7′,7a′-hexahydrospiro[indoline-3,3′-pyrrolizine]-1′,2′-dicarboxamide]	–	–	–	–	+ (NAUC “+” refers to an observed NAUC <140% of positive control)	–
CN(C)C(=O)CN1C(=O)[C@]2(c3cc(Cl)cc(Cl)c31)[C@@H](C(=O)O)[C@@H](C(=O)N(CC1CC1)c1cc(Cl)cc(Cl)c1)[C@H]1CC(F)(F)CN12 [Example 205]	+ (NAUC “+” refers to an observed NAUC <140% of positive control)	++ (NAUC “++” refers to an observed NAUC 170-140% of positive control)	++ (NAUC “++” refers to an observed NAUC 170-140% of positive control)	–	–	–
CC(C)(C)c1cccc(CCNC(=O)C2C(C(F)(F)F)NC3(C(=O)Nc4c(Cl)cc(Cl)cc43)C2C(=O)O)c1 (stereo not shown) [Example 45]	–	–	–	+++ (NAUC “+++” refers to an observed NAUC>170% of positive control)	+++ (NAUC “+++” refers to an observed NAUC>170% of positive control)	–
O=C(Nc1cc(Cl)cc(Cl)c1)C1C(C(F)(F)c2ccncc2)NC2(C(=O)Nc3c(Cl)cc(Cl)cc32)C1C(=O)O (stereo not shown) [Example 66.9a, 5,7-dichloro-4′-((3,5-dichlorophenyl)carbamoyl)-5′-(difluoro(pyridin-4-yl)methyl)-2-oxospiro[indoline-3,2′-pyrrolidine]-3′-carboxylic acid]	–	–	–	–	+ (NAUC “+” refers to an observed NAUC <140% of positive control)	–
COc1c(Cl)cc(NC(=O)C2C3CC(C)(C)CN3C3(C(=O)Nc4c(Cl)cc(Cl)cc43)C2C(=O)O)cc1Cl (stereo not shown) [Example 14]	–	–	–	+++ (NAUC “+++” refers to an observed NAUC>170% of positive control)	+++ (NAUC “+++” refers to an observed NAUC>170% of positive control)	–
NC(=O)[C@H]1[C@@H](C(=O)Nc2cc(Cl)cc(Cl)c2)[C@H]2CC(F)(F)CN2[C@]12C(=O)Nc1c(Cl)cc(Cl)cc12 [Example 228, (1′R,2′S,3R,7a′R)-5,7-dichloro-N1′-(3,5-dichlorophenyl)-6′,6′-difluoro-2-oxo-1′,2′,5′,6′,7′,7a′-hexahydrospiro[indoline-3,3′-pyrrolizine]-1′,2′-dicarboxamide]	–	–	–	+ (NAUC “+” refers to an observed NAUC <140% of positive control)	+ (NAUC “+” refers to an observed NAUC <140% of positive control)	+ (NAUC “+” refers to an observed NAUC <140% of positive control)
O=C(Nc1cc(Cl)cc(Cl)c1)C1C(C(F)(F)c2ccccc2Cl)NC2(C(=O)Nc3c(Cl)cc(Cl)cc32)C1C(=O)O (stereo not shown) [Example 63]	–	–	–	–	+++ (NAUC “+++” refers to an observed NAUC>170% of positive control)	–
COc1c(Cl)cc(N(C)C(=O)[C@H]2[C@H]3CC(F)(F)CN3[C@]3(C(=O)Nc4c(Cl)cc(Cl)cc43)[C@H]2C(=O)O)cc1Cl [Example 179]	++ (NAUC “++” refers to an observed NAUC 170-140% of positive control)	++ (NAUC “++” refers to an observed NAUC 170-140% of positive control)	+++ (NAUC “+++” refers to an observed NAUC>170% of positive control)	–	–	–
CC(C)(C)c1ccc(CCNC(=O)C2C3CC(F)(F)CN3C3(C(=O)Nc4c(Cl)cc(Cl)cc43)C2C(=O)O)cc1 (stereo not shown) [Example 46]	–	–	–	+++ (NAUC “+++” refers to an observed NAUC>170% of positive control)	+++ (NAUC “+++” refers to an observed NAUC>170% of positive control)	–
O=C(O)[C@H]1[C@@H](C(=O)N(CC2CC2)c2cc(Cl)cc(Cl)c2)[C@H]2CC(F)(F)CN2[C@]12C(=O)Nc1c(Cl)cc(Cl)cc12 [Example 173]	+++ (NAUC “+++” refers to an observed NAUC>170% of positive control)	+++ (NAUC “+++” refers to an observed NAUC>170% of positive control)	+ (NAUC “+” refers to an observed NAUC <140% of positive control)	–	–	–
O=C(NCCc1ccc(Cl)cc1)C1C2CC(F)(F)CN2C2(C(=O)Nc3c(Cl)cc(Cl)cc32)C1C(=O)O (stereo not shown) [Example 52]	–	–	–	++ (NAUC “++” refers to an observed NAUC 170-140% of positive control)	+++ (NAUC “+++” refers to an observed NAUC>170% of positive control)	–
